What is called IC50 is the concentration that gives 50% inhibition. As usually defined, the EC50 is the concentration at which the effect is half-maximal.

Among the data in patent publication US20110112135A1, “Imidazo [1,2-A] Pyridine Compounds” (priority 2007, published 2011) are IC50, EC50 and Emax values, retold here.

One experiment has as its target T1, human LXRβ (Homo sapiens, UniProt P55055).
T1 construct: biotin (biotinylated); made in house; host or cells: E. coli (crude extract)
T1 sequence (P55055 1-460): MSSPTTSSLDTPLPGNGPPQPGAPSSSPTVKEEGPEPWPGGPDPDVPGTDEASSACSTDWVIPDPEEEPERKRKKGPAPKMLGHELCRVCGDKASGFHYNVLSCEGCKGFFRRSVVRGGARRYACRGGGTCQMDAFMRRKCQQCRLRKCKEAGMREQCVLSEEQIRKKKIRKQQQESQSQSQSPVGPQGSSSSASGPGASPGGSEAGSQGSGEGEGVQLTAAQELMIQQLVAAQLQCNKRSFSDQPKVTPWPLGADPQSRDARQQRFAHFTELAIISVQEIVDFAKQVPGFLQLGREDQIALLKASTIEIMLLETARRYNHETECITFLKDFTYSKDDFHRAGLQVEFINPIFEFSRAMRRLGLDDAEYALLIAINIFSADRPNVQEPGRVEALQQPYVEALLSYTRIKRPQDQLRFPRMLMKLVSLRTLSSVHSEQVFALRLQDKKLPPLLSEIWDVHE
Nature of the experiment: Ligand-binding test procedure for human LXRβ (3H T0901317 tracer, flash plates). The conditions noted are these: biotinylated hLXRβ from E. coli extract; tracer 3H T0901317. In short, it runs like this: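 Biotinylated hLXRβ from E. coli extract was captured on streptavidin flash plates (Bmax ~4000 cpm) at 4 °C overnight. Test ligand dilutions were mixed with 5 nM [3H]T0901317 tracer solution and incubated on the plates overnight at 4 °C; bound radioactivity was counted after washing.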

In a further experiment the test system is ABCA1 gene. Description: Quantitative analysis of ABCA1 gene regulation in THP-1 cells (real-time PCR). Format: cell-based, human. The conditions noted are these: Gene regulation by LXR (Human), differentiated THP-1 cells, 18 hrs; for EC50: ABCA1 mRNA, read-out: EC50 ABCA1; for Emax: LXR agonist reference at 1.0 uM as positive control, read-out: Agonism ABCA1. The procedure:
III. Quantitative Analysis of ABCA1 Gene Regulation in THP-1 Cells. The compounds of formula (I) effect on the regulation of the ABCA1 gene was evaluated using the following procedure. Materials and Methods Cell culture: The THP-1 monocytic cell line (ATCC #TIB-202) was obtained from American Type Culture Collection (Manassas, Va.) and cultured in RPMI 1640 medium (Gibco, Carlsbad, Calif.) containing 10% FBS, 2 mM L-glutamine, and 55 uM beta-Mercaptoethanol (BME). […] Louis, Mo.) for three days to induce differentiation into adherent macrophages. Differentiated THP-1 cells were treated with test compounds or ligands dissolved in DMSO (Sigma, D-8779) in culture medium lacking phorbal ester. […] Dose response effects were measured in duplicate, in the range of 0.001 to 30 micromolar concentrations and treated cells were incubated for an additional 18 hrs prior to RNA isolation. Unstimulated cells treated with vehicle were included as negative controls on each plate. […] L., J. Med. Chem. (2000), 45:1963-1966.). Results of antagonist analysis are expressed as % antagonism and IC50 (in μM). RNA isolation and quantitation: Total cellular RNA was isolated from treated cells cultured in 96-well plates using PrepStation 6100 (Applied Biosystems, Foster City, Calif.), according to the manufacturer's recommendations. RNA was resuspended in ribonuclease-free water and stored at -70° C. prior to analysis. RNA concentrations were quantitated with RiboGreen test procedure, #R-11490 (Molecular Probes, Eugene, Oreg.). Gene expression analysis: Gene-specific mRNA quantitation was performed by real-time PCR with the Perkin Elmer Corp. chemistry on an ABI Prism 7700 Sequence detection system (Applied Biosystems, Foster City, Calif.) according to the manufacturer's instructions. Samples (50-100 ng) of total RNA were assayed in duplicate or triplicate in 50 ul reactions using one-step RT-PCR and the standard curve method to estimate specific mRNA concentrations. Sequences of gene-specific primer and probe sets were designed with Primer Express Software (Applied Biosystems, Foster City, Calif.). […] Relative levels of ABCA1 mRNA are normalized using GAPDH mRNA or 18S rRNA probe/primer sets purchased commercially (Applied Biosystems, Foster City, Calif.). Statistics: Mean, standard deviation and statistical significance of duplicate evaluations of RNA samples were assessed using ANOVA, one-way analysis of variance using SAS analysis. Reagents: -GAPDH Probe and Primers-Taqman GAPDH Control Reagents 402869 or 4310884E 18S Ribosomal RNA-Taqman 18S Control Reagents 4308329 […] Qiagen Quantitect probe RT-PCR 204443.
In general terms: Real-time PCR tracks product formation cycle by cycle.

In a further experiment the target is T2, human LXRα (Homo sapiens, UniProt Q13133).
T2 construct: biotin (biotinylated); made in house; host or cells: E. coli (crude extract)
T2 sequence (Q13133 1-447): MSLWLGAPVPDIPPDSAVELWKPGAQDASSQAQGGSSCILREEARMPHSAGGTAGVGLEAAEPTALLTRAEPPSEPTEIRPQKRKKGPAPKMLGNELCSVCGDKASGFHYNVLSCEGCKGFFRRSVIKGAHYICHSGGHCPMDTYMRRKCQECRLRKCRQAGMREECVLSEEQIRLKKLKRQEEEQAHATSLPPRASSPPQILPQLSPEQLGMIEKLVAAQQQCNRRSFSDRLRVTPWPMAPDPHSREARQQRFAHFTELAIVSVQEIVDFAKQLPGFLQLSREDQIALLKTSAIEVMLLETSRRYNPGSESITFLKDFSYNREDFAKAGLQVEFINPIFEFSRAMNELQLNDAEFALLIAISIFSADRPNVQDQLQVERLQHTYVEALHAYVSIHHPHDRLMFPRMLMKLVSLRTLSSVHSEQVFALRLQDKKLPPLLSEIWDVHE
Nature of the experiment: Ligand-binding test procedure for human LXRα (3H T0901317 tracer, flash plates). The conditions noted are these: biotinylated hLXRα from E. coli extract; tracer 3H T0901317. In short, it runs like this:
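Biotinylated hLXRα from E. coli extract (50 mM Tris) captured on streptavidin flash plates overnight at 4 °C. Compound dilution series mixed with 5 nM [3H]T0901317 (concentration before mixing), incubated overnight at 4 °C; wells aspirated, washed and remaining radioactivity counted.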

Compound `CCS(=O)(=O)c1cccc(Oc2cccc(-c3c(C(C)(C)C)nc4c(C#N)cccn34)c2)c1` [Example 79, 2-tert-butyl-3-{3-[3-(ethylsulfonyl)phenoxy]phenyl}imidazo[1,2-a]pyridine-8-carbonitrile] displayed an IC50 on human LXRβ of 0.0237 µM. For the same compound, in the experiment with ABCA1 gene, the concentration for a half-maximal effect (EC50) is 0.285 µM and the Emax is 60%. This compound had an IC50 at human LXRα of 0.745 µM.

Consider `CCc1nc2c(C(F)(F)F)cccn2c1-c1cccc(Oc2cccc(S(=O)(=O)C(C)C)c2)c1` [Example 20, 2-ethyl-3-(3-(3-(isopropylsulfonyl)phenoxy)phenyl)-8-(trifluoromethyl)imidazo[1,2-a]pyridine], for which the concentration for half-maximal inhibition (IC50) at human LXRβ was 0.014 µM. Besides, in the experiment with ABCA1 gene, the concentration giving a half-maximal response (EC50) was determined as 0.07 µM and the Emax was 101%. On human LXRα, this compound came in with a half-maximal inhibitory concentration (IC50) of 0.281 µM.

At human LXRβ, `CCc1nc2c(C#N)cccn2c1-c1cccc(Oc2cccc(S(=O)(=O)NC)c2)c1` [Example 51, 3-[3-(8-cyano-2-ethylimidazo[1,2-a]pyridin-3-yl)phenoxy]-N-methylbenzenesulfonamide] gave an IC50 of 0.0796 µM. Also, in the experiment on ABCA1 gene, the half-maximal effective concentration (EC50) was 1.47 µM and the Emax came out at 93%. At human LXRα, this compound showed a concentration for half-maximal inhibition (IC50) of 1.92 µM.

Regarding `CCS(=O)(=O)c1cccc(Oc2cccc(-c3c(C(C)C)nc4c(C#N)cccn34)c2)c1` [Example 73, 3-{3-[3-(ethylsulfonyl)phenoxy]phenyl}-2-isopropylimidazo[1,2-a]pyridine-8-carbonitrile], the half-inhibitory concentration (IC50) at human LXRβ was 0.0365 µM. Also, in the experiment with ABCA1 gene, the concentration giving a half-maximal response (EC50) was determined as 2.04 µM and the Emax is 82%. On human LXRα, this compound registered an IC50 of 1.88 µM.

Take `CCc1nc2c(Cl)cccn2c1-c1cccc(Oc2cccc(S(=O)(=O)C(C)C)c2)c1` [Example 65, 8-chloro-2-ethyl-3-{3-[3-(isopropylsulfonyl)phenoxy]phenyl}imidazo[1,2-a]pyridine]: the half-inhibitory concentration (IC50) on human LXRβ was 0.0169 µM; at human LXRα it was 0.315 µM. Also, the half-maximal effective concentration (EC50) in the experiment with ABCA1 gene came to 1.29 µM. In the experiment with ABCA1 gene, the Emax was 113%.

For `CC(C)c1nc2c(Cl)cccn2c1-c1cccc(Oc2cccc(S(=O)(=O)C(C)C)c2)c1` [Example 68, 8-chloro-2-isopropyl-3-{3-[3-(isopropylsulfonyl)phenoxy]phenyl}imidazo[1,2-a]pyridine], the results for the IC50 at human LXRβ and on human LXRα were 0.0071 µM and 0.406 µM, respectively. Besides, the EC50 with ABCA1 gene is 1.26 µM. The Emax in the experiment with ABCA1 gene worked out at 93%.

Consider `CC(C)(C)c1nc2c(C(F)(F)F)cccn2c1-c1cccc(Oc2cccc(S(=O)(=O)CCCO)c2)c1` [Example 78, 3-[(3-{3-[2-tert-butyl-8-(trifluoromethyl)imidazo[1,2-a]pyridin-3-yl]phenoxy}phenyl)sulfonyl]propan-1-ol], for which the 50% inhibitory concentration (IC50) is 0.009 µM on human LXRβ and 0.167 µM on human LXRα. In the experiment on ABCA1 gene, the EC50 was found to be 1.47 µM. The Emax with ABCA1 gene turned out to be 92%.

In turn, `CC(C)c1nc2c(C(F)(F)F)cccn2c1-c1ccc(Oc2cccc(S(C)(=O)=O)c2)cc1` [Example 119, 2-(1-methylethyl)-3-{4-[3-(methylsulfonyl)phenoxy]phenyl}-8-(trifluoromethyl)imidazo[1,2-a]pyridine] displayed a half-maximal inhibitory concentration (IC50) at human LXRβ of 0.179 µM. Besides, in the experiment on ABCA1 gene, the 50% effective concentration (EC50) worked out at 0.62 µM and the Emax was 59%. Besides, the concentration for half-maximal inhibition (IC50) on human LXRα is greater than 1 µM.

Regarding `CCS(=O)(=O)c1cccc(Oc2ccc(Cl)c(-c3c(C(C)C)nc4c(C#N)cccn34)c2)c1` [Example 83, 3-{2-chloro-5-[3-(ethylsulfonyl)phenoxy]phenyl}-2-isopropylimidazo[1,2-a]pyridine-8-carbonitrile], the half-inhibitory concentration (IC50) at human LXRβ worked out at 0.0068 µM; at human LXRα, 0.218 µM. In the experiment on ABCA1 gene, the EC50 was determined as 0.26 µM. Moreover, the Emax in the experiment with ABCA1 gene came to 76%.

With `CCS(=O)(=O)c1cccc(Oc2ccc(-c3c(C(C)C)nc4c(C(F)(F)F)cccn34)cc2)c1` [Example 120, 3-{4-[3-(ethylsulfonyl)phenoxy]phenyl}-2-(1-methylethyl)-8-(trifluoromethyl)imidazo[1,2-a]pyridine], the IC50 on human LXRβ was 0.117 µM; on human LXRα, greater than 1 µM. In the experiment with ABCA1 gene, the EC50 came to 0.59 µM. The Emax with ABCA1 gene turned out to be 53%.

Regarding `CCc1nc2c(Cl)cccn2c1-c1cccc(Oc2cccc(S(=O)(=O)CC)c2)c1` [Example 64, 8-chloro-2-ethyl-3-{3-[3-(ethylsulfonyl)phenoxy]phenyl}imidazo[1,2-a]pyridine], on human LXRβ, the half-inhibitory concentration (IC50) was found to be 0.0151 µM. Also, in the experiment on ABCA1 gene, the concentration for a half-maximal effect (EC50) turned out to be 0.64 µM and the Emax was determined as 79%. At human LXRα, this compound gave an IC50 of 0.399 µM.

With `CCc1nc2c(C#N)cccn2c1-c1cccc(Oc2cccc(S(=O)(=O)N(C)Cc3ccc(OC)cc3)c2)c1` [Example 46, 3-[3-(8-cyano-2-ethylimidazo[1,2-a]pyridin-3-yl)phenoxy]-N-(4-methoxybenzyl)-N-methylbenzenesulfonamide], the IC50 on human LXRβ is 0.0154 µM. In the experiment on ABCA1 gene, the EC50 was determined as 0.359 µM and the Emax was 92%. In addition, the IC50 at human LXRα amounted to 0.0649 µM.

As to `CCc1nc2c(C#N)cccn2c1-c1cccc(Oc2cccc(S(=O)(=O)CC)c2)c1` [Example 70, 2-ethyl-3-{3-[3-(ethylsulfonyl)phenoxy]phenyl}imidazo[1,2-a]pyridine-8-carbonitrile], the IC50 turned out to be 0.107 µM at human LXRβ and 4.67 µM on human LXRα. Moreover, the 50% effective concentration (EC50) in the experiment with ABCA1 gene was found to be 1.27 µM. In the experiment on ABCA1 gene, the Emax was 95%.

In turn, `COc1ccccc1-c1nc2c(C(F)(F)F)cccn2c1-c1ccc(Oc2cccc(S(C)(=O)=O)c2)cc1` [Example 126, 2-(2-methoxyphenyl)-3-{4-[3-(methylsulfonyl)phenoxy]phenyl}-8-(trifluoromethyl)imidazo[1,2-a]pyridine] showed a 50% inhibitory concentration (IC50) on human LXRβ of 0.014 µM. In addition, in the experiment on ABCA1 gene, the concentration for a half-maximal effect (EC50) turned out to be 0.025 µM and the Emax turned out to be 30%. This compound also displayed an IC50 at human LXRα of 0.29 µM.

In turn, `CC(C)c1nc2c(C#N)cccn2c1-c1cccc(Oc2cccc(S(=O)(=O)C(C)C)c2)c1` [Example 74, 2-isopropyl-3-{3-[3-(isopropylsulfonyl)phenoxy]phenyl}imidazo[1,2-a]pyridine-8-carbonitrile] gave an IC50 on human LXRβ of 0.024 µM. In the experiment on ABCA1 gene, the EC50 was 0.56 µM and the Emax was determined as 97%. This compound gave a 50% inhibitory concentration (IC50) at human LXRα of 1.26 µM.
